Assays:
Sprague-Dawley rats = experiment: Hemorrhagic shock-induced vascular hyperpermeability: FITC-albumin flux in mesenteric postcapillary venules by intravital microscopy; type: in vivo, rat
Text: For example, in an embodiment of the invention disclosed herein, Sprague-Dawley rats were anesthetized with urethane. Hemorrhagic shock was induced in the anesthetized rats by withdrawing blood to reduce the mean arterial pressure to 40 mm Hg for one hour. The rats were then resuscitated to 90 mmHg by administration of the shed blood and normal saline. Albumin labeled with fluorescein isothiocyanate (FITC) was given intravenously during the period in which shock was present. The mesenteric postcapillary venules in a transilluminated segment of small intestine were examined to quantitate changes in albumin flux using intravital microscopy.

endothelial cells = settings: traumatized animals, hemorrhagic shock; Childs et al. 2008; cited from earlier work

| Molecule | vascular hyperpermeability induced by hemorrhagic shock-induced apoptosis (Sprague-Dawley rats; alpha-lipoic acid administered to traumatized animals) | vascular hyperpermeability (Sprague-Dawley rats; alpha-lipoic acid, about 100 mg/kg, before the onset of hemorrhagic shock) | vascular hyperpermeability (Sprague-Dawley rats; alpha-lipoic acid, about 100 mg/kg, within 60 minutes after the development of hemorrhagic shock) | vascular hyperpermeability and apoptosis (endothelial cells) | vascular hyperpermeability (Sprague-Dawley rats; angiopoietin-1 intravenously, 200 ng/ml, traumatized animals) |
| --- | --- | --- | --- | --- | --- |
| O=C(O)CCCCC1CCSS1 (stereo not drawn) [Alpha-lipoic acid, alpha-lipoic acid] | attenuated the amount of vascular hyperpermeability | effective in reducing the amount of vascular hyperpermeability | effective in reducing the amount of vascular hyperpermeability |  |  |
| Angiopoietin-1: an endothelial cell growth factor (protein, UniProt Q15389 16-498, looked up) Angiopoietin-1: HIGCSNQRRSPENSGRRYNRIQHGQCAYTFILPEHDGNCRESTTDQYNTNALQRDAPHVEPDFSSQKLQHLEHVMENYTQWLQKLENYIVENMKSEMAQIQQNAVQNHTATMLEIGTSLLSQTAEQTRKLTDVETQVLNQTSRLEIQLLENSLSTYKLEKQLLQQTNEILKIHEKNSLLEHKILEMEGKHKEELDTLKEEKENLQGLVTRQTYIIQELEKQLNRATTNNSVLQKQQLELMDTVHNLVNLCTKEGVLLKGGKREEEKPFRDCADVYQAGFNKSGIYTIYINNMPEPKKVFCNMDVNGGGWTVIQHREDGSLDFQRGWKEYKMGFGNPSGEYWLGNEFIFAITSQRQYMLRIELMDWEGNRAYSQYDRFHIGNEKQNYRLYLKGHTGTAGKQSSLILHGADFSTKDADNDNCMCKCALMLTGGWWFDACGPSNLNGMFYTAGQNHGKLNGIKWHYFKGPSYSLRSTTMMIRPLDF |  |  |  | potent inhibitor of vascular hyperpermeability and apoptosis | attenuated the amount of vascular hyperpermeability |
